Reference: a melting point compilation (Tetko et al.; mined from patent text by program, amines drawn as free bases though some values may be those of a salt)

Row | melting point [°C] | Compound
1 | 30 | CC(C)(C)c1cc(Cc2c(S)ccc3ccccc23)cc(C(C)(C)C)c1O
2 | 164 to 166 | C=C(c1cc(F)ccc1O)n1ccnc1
3 | 216 to 217 | O=C(O)CCCOc1cccc(-c2n[nH]c3c2Cc2ccccc2-3)c1
4 | 88 to 89 | CCCCc1cc2cc(N)ccn2c1C(=O)c1ccc(OCCCN(CCCC)CCCC)cc1
5 | 291 to 294 | CN(C(=O)C(F)(F)F)C1(C)CN(c2c(F)cc3c(=O)c(C(=O)O)cn(C4CC4)c3c2F)C1
6 | 102 to 106 | COC(=O)c1ccc(C[C@H](NC(=O)OCc2ccccc2)C(=O)O)cc1
7 | 61 | CCCC1COC(c2cc(F)c(C(F)(F)Oc3ccc(-c4cc(F)c(OC(F)(F)F)c(F)c4)c(F)c3)c(F)c2)OC1 (centres undefined)
8 | 242 | COc1ccc(C2=NNC(=O)[C@H]3CC=CC[C@@H]23)c2c1OC(C)(C)C2 (relative stereo)
9 | 120 to 121 | COCCN1C(C)=C(C(=O)OC)C(CCOC)(c2ccccc2Cl)C(C(=O)OC)=C1C
10 | 120 to 123 | CNc1nc(-c2ccc(OC)c(OC)c2)cs1
11 | 55 to 60 | O=[N+]([O-])c1ccc(Oc2ccc(C(F)(F)F)cc2Cl)cc1CCl
12 | 223 | O=C(Nc1ncccn1)c1c(Cl)ccc2c1OCCO2
13 | 243 to 244 | O=C(Nc1nnn[nH]1)c1oc2ccc(Cl)cc2c1OCC1CC1
14 | 199 | CCOc1ccc2[nH]cc(C(=O)NCc3ccccc3)c(=O)c2n1
15 | 189 to 190 | O=c1nc(C2CC2)c2cc(-c3cccc(Cl)c3)ccc2[nH]1
16 | 198 to 200 | NC(=NC(=O)Cn1c(Cl)ccc1Cl)NC(=O)c1ccc(Cl)cc1
17 | 148 | CCOC(=O)c1[nH]nc(-c2ccc(C#N)cc2)c1C
18 | 79 to 81 | C=CC(=O)N1CCSc2ccc(OC)cc2C1
19 | 183 to 185 | COC(=O)[C@H]1CC[C@H](N2CCN(c3ccc(C4CCN(C(=O)C(F)(F)F)CC4)cc3)C2=O)CC1
20 | 155 to 156 | CCOC(=O)c1nc2n(c(=O)c1O)CCN2CCO
21 | 149 to 150 | O=C(CCN1CCOCC1)Nc1cc(-c2nnc(SCc3cccc(F)c3)o2)ccn1
22 | 76.8 | CCOC(=O)C=Cc1ccc(C(=O)Cl)cc1
23 | 212 to 214 | CCCc1nc2c(N)nc3ccccc3c2n1CC(C)(C)C(=O)N1CCOCC1
24 | 189 to 190 | O=Cc1ccc(-c2nnc(-c3ccccc3[N+](=O)[O-])o2)cc1

Row | melting point [°C] | Compound
25 | > 215 | COc1cc2ncc(C#N)c(Nc3ccc(F)c(Cl)c3)c2cc1NC(=O)C=CCN1CCC(O)CC1
26 | 161 to 163 | COc1cn(-c2ccc(-n3c(=O)ccn3C(F)F)cc2F)nc(-c2ccnn2-c2ccccc2)c1=O
27 | 224 to 226 | O=C(O)c1cn(C2CC2)c2c(Br)c(F)c(F)cc2c1=O
28 | 86 to 89 | Cc1noc(NS(=O)(=O)c2ccsc2-c2ccccc2)c1Br
29 | 165 to 167 | CCOC(=O)C(C)(C)NC(=O)c1nnc2ccc(NCCCN3CCC(OC(c4ccccc4)c4ccccc4)CC3)nn12
30 | 135 to 139 | CCCCC12CCC3C4=C(CCC3C1CCC2O)CC(OC)=CC4 (centres undefined)
31 | 144 to 147 | COC(=O)c1ccc2cc(OC(=S)N(C)C)ccc2c1
32 | 132 to 133 | CC(C)c1ccccc1Sc1c(O)cc(-c2ccc(OCCCc3ccccc3)cc2)oc1=O
33 | 160 to 161 | CS(=O)(=O)N(Cl)C(=O)c1cc(Oc2ccc(C(F)(F)F)cc2Cl)ccc1[N+](=O)[O-]
34 | 106 to 107 | CC(C)(C)OC(=O)N1CCS(=O)(=O)C1
35 | 140 to 141 | O=C1C(c2ccccc2)OC(=S)N1Nc1ccccc1 (centres undefined)
36 | 127 to 128 | c1cc(CN2CCCCC2)cc(OCCCNc2ccnc3ccccc23)c1
37 | 227 to 237 | COc1ccc(NC(=O)c2c(Cl)cccc2Cl)c2nccc(N3CCN(C)C3=O)c12
38 | > 240 | COc1cc(C(=N)N)ccc1O
39 | 102 | N#Cc1ccccc1C(=O)c1ccc(S)cc1
40 | 92 to 94 | COC(=O)CCCC#Cc1cc(Cl)ccc1NS(=O)(=O)c1cc(C)cc(C)c1
41 | 129 to 131 | CNS(=O)(=O)c1ccc(C(=O)C=Cc2cc(-c3cc4ccccc4n3C)c(OC)cc2OC)cc1
42 | 193 to 195 | O=C(NNS(=O)(=O)c1ccc([N+](=O)[O-])cc1)c1ccccc1
43 | 140 to 145 | O=C1Nc2ccc(-c3cccc(Cl)c3)cc2C2(CCCC2)O1
44 | 178 | CCCC1=C(C(=O)OCC)C(c2ccccc2C)c2c[nH]nc2N1 (centres undefined)
45 | 186 to 188 | CCn1cc(C(=O)O)c(=O)c2cc(F)c(N3CCNC(c4ccc(C)o4)C3)cc21 (centres undefined)
46 | 194 to 195 | CCOCc1nc2c(N)nc(C)c(C)c2n1CC1(O)CCCCC1
47 | 190 to 192 | Cc1ccc(-n2ncc(-c3ccc(S(C)(=O)=O)cc3)c(-c3ccc(F)cc3)c2=O)cc1
48 | 110 | CC(C)c1cc2c(c(O)c1-c1ccc3c(c1)CCCC3)CCCC2

Row | melting point [°C] | Compound
49 | 109 to 110 | CC(=O)n1c(CCc2ccccc2)cc2c(I)ccnc21
50 | 114 to 115 | N#CC1(Cl)C=C(OCc2ccccc2)C=NC1 (centres undefined)
51 | 237 to 238 | CCOC(=O)C(=O)CC(=O)c1cn(Cc2ccc3ccccc3n2)c2ccccc2c1=O
52 | 158 to 160 | Cc1nc(-c2ccc([N+](=O)[O-])c(C)c2)c[nH]1
53 | 97 to 102 | C=CCSC(Cc1ccc(Cl)cc1Cl)n1ccnc1 (centres undefined)
54 | 234 to 235 | CC(C)(C)c1ccc(C(=O)Nc2cn3cc(C(F)(F)F)ccc3n2)cc1
55 | 100 to 102 | O=C(CCN1CCC(C(O)c2ccc3ccccc3c2)CC1)Cc1ccc(F)cc1 (centres undefined)
56 | 64 to 66 | CCOc1cc(CBr)ccc1C(=O)O
57 | 113 to 114 | CC(C)=NNC(=O)NCCCN(C)CCCNC(=O)NN=C(C)C
58 | 103 to 105 | CC1N=C(N2CCN(CCO)CC2)NN=C1c1ccccc1 (centres undefined)
59 | 144 to 146 | CCCn1nc2c(N)nc3ccccc3c2c1CCCCN1C(C)=NOC1(C)C
60 | 64 | CCCc1ccc(-c2ccc(-c3ccc(F)s3)c(F)c2)cc1
61 | 278 to 282 | Cc1cc(=O)n(-c2cccc(Cl)c2)c2[nH]n(-c3ccccc3)c(=O)c12
62 | 122 | Cc1ccccc1CNC[C@@H]1C[C@@H](S)CN1S(=O)(=O)c1ccc2ccccc2c1
63 | 172 | Cc1cc(C)c2nc(NC3CCN(CCCO)CC3)n(Cc3nc(C)ccc3O)c2c1
64 | 165 to 166 | Oc1ccccc1-n1nnc2cccnc21
65 | 161 to 162 | O=C(NCC12CC3CC(CC(C3)C1)C2)c1cc(I)ccc1Cl
66 | 95 to 97 | CCCCNc1c(C(=O)OCC)cnc2nn(C)cc12
67 | 188 to 190 | CCC(CC)Nc1cc(C(=O)O)ccc1N1C(=O)CCC1(CO)CCO (centres undefined)
68 | 150 to 152 | CCOC(=O)/C=C/c1cc(OC)c(OC)c(OC)c1C#N
69 | 120 to 122 | O=C(c1cccc(Nc2ncnc3ccccc23)c1)N1CCN(c2ncc(Cc3ccccc3)cn2)CC1
70 | 133 to 135 | COc1ccc2c(c1)OCCC(C(=O)N1CCN(C(=O)c3cc(OC)c(OC)c(OC)c3)CC1)=C2
71 | 153 to 156 | CC(C)(C)C(=O)OCC1OC(OC(=O)C(C)(C)C)C(OC(=O)C(C)(C)C)C(OC(=O)C(C)(C)C)C1OC(=O)C(C)(C)C (centres undefined)
72 | 73 to 75 | CC(O)CN(CC(C)O)C(=O)c1ccc(C(=O)N2CCN(c3ncccc3NC(C)C)CC2)cc1 (centres undefined)

Row | melting point [°C] | Compound
73 | 237 to 238 | N#CNc1nnc(-c2ccc3occ(-c4cccc(OC(F)(F)F)c4)c3c2)o1
74 | 86 to 88 | CCCc1c(COc2ccc(Cc3nnn(Cc4ccc(-c5nnn[nH]5)cc4)n3)cc2)ccc(C(C)=O)c1O
75 | 85 to 86 | O=S(=O)(F)c1ccc2ccccc2c1
76 | 142 to 144 | CC(=O)c1ccc2c(c1)Cc1cccnc1O2
77 | 144 to 149 | COc1ccc(C2CC(=O)OC(=O)C2)cc1
78 | 92 to 94 | CCCCCCC(=N)NC(=S)Nc1ccc(Cl)c([N+](=O)[O-])c1
79 | 165 | CCCc1c[nH]cc2c(=O)n(-c3ccc(OC)cc3)nc1-2
80 | 226 to 228 | Cc1cc(C)c(Nc2nc(C)ccc2S(=O)(=O)c2ccc(O)cc2)c(C)c1
81 | 295 | Nc1nc2ccccc2c2c1ncn2CCNC(=O)c1ccccc1
82 | 264 to 269 | CC(c1oc2ccc(F)cc2c(=O)c1-c1ccccc1)n1cnc2c(N)ncnc21 (centres undefined)
83 | 63 to 65 | O=C(O)CCC(=O)OCc1ccccc1[N+](=O)[O-]
84 | 208 to 209 | C=CCNC(=O)Cn1c(-c2ccc(Cl)cc2)nc2cccnc21
85 | 143 to 146 | N#Cc1cc(-c2ccoc2)c2ccc(Sc3cccc(-c4ccccc4)n3)cc2c1
86 | 209 | O=C(c1nc(-c2ccccc2)nc2ccccc12)N1CCC(O)CC1
87 | 163 | COc1ccc(-c2cn3ccc(C)cc3n2)cc1OC
88 | 167 to 168 | CC(C)CN1c2ccccc2C(C)(C)C12C=Nc1c(cc(N3CCc4ccccc43)c3ccccc13)O2 (centres undefined)
89 | > 280 | Cc1nc(C2CCCCC2)c2nc(-c3ccccc3)cc-2[nH]1
90 | 216 to 219 | CC(=O)Cn1nc(-c2sc(N)nc2-c2ccccc2)ccc1=O
91 | 110 to 111 | Cc1ccc(C(=O)NCCCSc2ccncc2)cc1
92 | 109 to 115 | Cc1cc(C2=NN(C(=S)NN)[C@H](C)Cc3cc4c(cc32)OCO4)ccc1[N+](=O)[O-]
93 | 125 to 135 | Cc1noc(NS(=O)(=O)c2ccccc2-c2ccc(-c3ncco3)cc2C(O)c2ncc(-c3ccccc3)o2)c1C (centres undefined)
94 | > 260 | COc1ccc2[nH]cc(-c3cc4c(OC)ncnc4[nH]3)c2c1

Row | Compound | melting point [°C]
95 | Fc1ccc(-c2[nH]nc(C3=CC4CCCN4CC3)c2-c2ccncc2)cc1 (centres undefined) | 204 to 208
96 | O=C(O)COc1ccc(CCc2ccc(N3CCNCC3)cc2)cc1 | > 250
97 | Cc1cc(CBr)cc(CBr)c1 | 65 to 66
98 | Fc1ccc(Cn2c(NC3CCN(CCc4ccccn4)CC3)nc3ccccc32)cc1 | 133
99 | CC1(C)C(=O)N(c2ccc(C#N)c(C(F)(F)F)c2)C(=O)N1CCF | 10
